ChEMBL document CHEMBL4190179 (Medchemcomm, 2016)
pIC50: −log10 of the molar value.

What was measured:
[1] = Inhibition of PMA-stimulated Il-17A production in mouse Th17 cells at 0.3 uM by live/dead fixable dead cell staining based flow cytometric analysis relative to control; type: functional
[2] = target: T1, Nuclear receptor ROR-gamma (Homo sapiens, UniProt P51449); assay: Inverse agonist activity at RORgammat (unknown origin) by FRET assay
T1 sequence (P51449 whole entry): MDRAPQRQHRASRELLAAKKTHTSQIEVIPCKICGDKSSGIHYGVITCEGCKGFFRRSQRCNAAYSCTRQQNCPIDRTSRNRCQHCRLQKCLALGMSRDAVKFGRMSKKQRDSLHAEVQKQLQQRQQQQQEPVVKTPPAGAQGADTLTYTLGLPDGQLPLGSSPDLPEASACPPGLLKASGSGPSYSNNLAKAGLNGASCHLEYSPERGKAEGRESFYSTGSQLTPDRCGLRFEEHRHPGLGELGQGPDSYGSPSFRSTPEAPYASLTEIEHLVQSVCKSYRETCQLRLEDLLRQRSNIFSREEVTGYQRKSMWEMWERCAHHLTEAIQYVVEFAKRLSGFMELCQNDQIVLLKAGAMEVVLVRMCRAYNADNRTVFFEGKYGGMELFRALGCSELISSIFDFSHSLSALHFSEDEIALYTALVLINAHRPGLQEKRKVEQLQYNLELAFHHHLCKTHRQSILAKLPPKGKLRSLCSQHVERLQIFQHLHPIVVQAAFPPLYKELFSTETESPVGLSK

Mus musculus = species: Mus musculus; assay: (§1) Inhibition of PMA-stimulated Il-17A production in mouse Th17 cells by live/dead fixable dead cell staining based flow cytometric analysis; type: functional
[3] = as §1; type: functional

Row | SMILES | inhibition at 0.3 µM [1] | other results
1 | COc1ccc(Cl)c(-c2ccc(NC(=O)C3CCCC3)cc2)c1 | 34% | 
2 | COc1ccc(Cl)c(-c2ccc(NC(=O)c3c(F)cccc3F)cc2)c1 | 71% | 
3 | O=C(Nc1ccc(-c2cc(OC(F)(F)F)ccc2Cl)cc1)c1c(F)cccc1F | 97% | pIC50 [2]: < 4.30; inhibition (Mus musculus): Dose-dependent effect; pIC50 [3]: 7.89
4 | COc1ccc(Cl)c(-c2ccc(NC(=O)C3CCCO3)cc2)c1 (configuration not stated) | 30% | 
5 | COc1ccc(Cl)c(-c2ccc(NC(=O)c3ncccc3F)cc2)c1 | 22% | 
6 | COc1ccc(Cl)c(-c2ccc(NC(=O)Cc3ccccc3F)cc2)c1 | 19% | 
7 | COc1ccc(Cl)c(-c2ccc(NC(=O)c3ccccc3)cc2)c1 | 35% | 
8 | O=C(Nc1ccc(-c2cccnc2)cc1)c1c(F)cccc1F | 17% | 
9 | O=C(Nc1ccc(-c2ccccc2)cc1)c1c(F)cccc1F | 45% | 
10 | Cn1cc(-c2ccc(NC(=O)c3c(F)cccc3F)cc2)cn1 | -7% | 
11 | COc1ccc(Cl)c(-c2ccc(NC(=O)c3c(F)cccc3F)cc2F)c1 | 82% | 
12 | COc1ccc(Cl)c(-c2ccc(NC(=O)Cc3ccccc3)cc2)c1 | 33% | 
13 | COc1ccc(Cl)c(-c2ccc(NC(=O)c3ccccc3C(F)(F)F)cc2)c1 | 25% | 
14 | COc1ccc(Cl)c(-c2ccc(NC(=O)c3c(F)cccc3F)cc2Cl)c1 | 75% | 
15 | COc1ccc(C)c(-c2ccc(NC(=O)c3c(F)cccc3F)cc2)c1 | 93% | 
16 | COc1ccc(Cl)c(-c2ccc(NC(=O)CC3CCOCC3)cc2)c1 | 8% | 
17 | COc1ccc(Cl)c(-c2ccc(NC(C)=O)cc2)c1 | 11% | 

Row | SMILES | inhibition at 0.3 µM [1] | other results
18 | COc1ccc(Cl)c(-c2ccc(NC(=O)C3CCOCC3)cc2)c1 | 35% | 
19 | COc1ccc(Cl)c(-c2ccc(NC(=O)C(C)C)cc2)c1 | 22% | 
20 | COc1ccc(Cl)c(-c2ccc(NC(=O)C3CCCCC3)cc2)c1 | 26% | 
21 | Cc1ccccc1-c1ccc(NC(=O)c2c(F)cccc2F)cc1 | 60% | 
22 | COc1ccc(Cl)c(-c2ccc(NC(=O)c3ccccc3Cl)cc2)c1 | 39% | 
23 | COc1ccc(Cl)c(-c2ccc(NC(=O)CC3CC3)cc2)c1 | 9% | 
24 | COc1ccc(Cl)c(-c2ccc(NC(=O)c3c(F)cccc3F)cn2)c1 | 29% | 
25 | O=C(Nc1ccc(-c2ccccc2Cl)cc1)c1c(F)cccc1F | 48% | 
26 | COc1ccc(Cl)c(-c2cccc(NC(=O)c3c(F)cccc3F)c2)c1 | 12% | 
27 | Cc1ccc(-c2ccc(NC(=O)c3c(F)cccc3F)cc2)cn1 | 4% | 
28 | COc1ccc(Cl)c(-c2ccc(NC(=O)c3c(F)cccc3Cl)cc2)c1 | 64% | 
29 | O=C(O)c1ccc(Cl)c(-c2ccc(NC(=O)c3c(F)cccc3F)cc2)c1 | 7% | 
30 | COc1ccc(Cl)c(-c2ccc(NC(=O)c3ccccc3F)cc2)c1 | 43% | 
31 | COc1ccc(Cl)c(-c2ccc(NC(=O)C3CC3)cc2)c1 | 35% | 
32 | COc1ccc(Cl)c(-c2ccc(NC(=O)C3CCN(C)CC3)cc2)c1 | 16% | 
33 | COCC(=O)Nc1ccc(-c2cc(OC)ccc2Cl)cc1 | 1% | 
34 | COc1ccc(Cl)c(-c2ccc(NC(=O)CCc3ccccc3)cc2)c1 | 24% | 
